# Laboratory results reported in patent US20230210838A1, “METHODS FOR TREATING CANCER OR VON-HIPPEL LINDAU DISEASE USING A COMBINATION OF A HIF-2 ALPHA INHIBITOR AND LENVATINIB” (Merck Sharp & Dohme LLC, priority 2020, published 2023).
# “And” between values parts separate entries of the source, which are not always exact repeats. Equal values may be shown once.
# Experiments:
# [1] = tested on: UMRC2 human VHL-deficient renal cell carcinoma xenograft; experiment: VHL-deficient renal cell carcinoma xenograft tumor model; assay type: in vivo; conditions: for anti-tumor activity compared to the vehicle control group: Day 34, one-way ANOVA with Tukey's multiple comparisons; for Final CRs: complete tumor regressions at end of study; for Final CRs / Final PRs: 10 mice per group; for Final PRs: partial tumor regressions at end of study; for TGI: respective to Vehicle-treated animals at Day 34, MK-6482 3 mg/kg BID oral, Lenvatinib 10 mg/kg QD oral
# Method: Prior to treatment initiation, female SCID Beige mice aged 7 weeks weighing between 18 to 21 grams were anesthetized and inoculated subcutaneously on the rear flank with single cell suspension of approximately 95% viable log-phase sub-confluent UMRC2 (5.0×10^6) cells in 0.1 mL of serum-free Dulbecco's Modified Eagle Medium (DMEM) to initiate tumor development. Treatment was initiated when the mean tumor volume of inoculated animals reached approximately 205 mm^3. Mice were pair-matched into 4 treatment groups consisting of 10 mice per group. Treatment groups consisted of: 1) 0.5% methylcellulose+0.5% Tween 80 (Vehicle); 2) MK-6482; 3) Lenvatinib; 4) MK-6482+Lenvatinib. Vehicle and MK-6482 were orally gavage-dosed twice daily (BID) at 3 mg/kg body weight. Lenvatinib was orally dosed once daily (QD) at 10 mg/kg body weight. Treatment began on Day 0 and completed on Day 34. —Caliper measurements of tumors and body weights were captured twice weekly. Statistical analysis was performed by one-way ANOVA with Tukey's multiple comparisons tests at the end of the study, Day 34.
# CRs were defined as no observable tumor whereas PRs were tumors whose volume was lower than the original tumor size when treatment began.
# [2] = Phase 2 open-label efficacy and safety study in VHL disease associated RCC; assay type: in vivo, human; conditions: 120 mg QD, 61 participants with VHL disease associated RCC
# Excerpt: A Phase 2, open-label efficacy and safety study in participants with VHL disease associated RCC is ongoing. As of 6 Sep.
# [3] = Phase 1 cross-over study of the effect of food on the PK of MK-6482 in healthy volunteers; assay type: in vivo, human; conditions: single dose 120 mg, healthy female adult volunteers
# [4] = FIH Phase 1 study of tolerability, safety, PK of MK-6482 in participants with advanced solid tumors; assay type: in vivo, human
# Method: As of 6 Sep. […] 52 additional participants with advanced RCC were treated in an expansion cohort (Part 1B) at the clinical dose of 120 mg QD.
# advanced RCC = experiment: FIH Phase 1 study, best response by RECIST v1.1 in previously treated advanced RCC; assay type: in vivo, human; conditions: 120 mg QD, 55 participants with previously treated advanced RCC
# Method: A FIH Phase 1 study designed to assess the tolerability, safety, PK, and PD properties of MK-6482 in participants with various advanced solid tumors is ongoing. As of 6 Sep. 2019 a total of 104 participants had been enrolled, including 43 participants with various advanced solid tumors in the dose-escalation portion (Part 1A) ranging from 20 to 240 mg QD and 120 mg BID. The MTD was not reached and 2 treatment-related DLTs were observed: 1 Grade 4 event of thrombocytopenia in the 240 mg QD cohort, and 1 Grade 3 event of hypoxia in the 120 mg BID cohort. The 120 mg QD dose was selected for further clinical development based on favorable PK, pharmacodynamic, and safety findings. 52 additional participants with advanced RCC were treated in an expansion cohort (Part 1B) at the clinical dose of 120 mg QD. […] In total, 55 participants with previously treated advanced RCC have been treated in this study with MK-6482 at 120 mg QD (3 patients in the dose-escalation portion of the study and 52 participants in the dose expansion portion of the study). Best response among these 55 participants included 11 participants (20%) with PR and 32 participants (58%) with SD as assessed by RECIST v1.1.
# [5] = combined dose escalation and expansion cohorts
SMILES,anti-tumor activity compared to the vehicle control group [1],Final CRs [1],Final PRs [1],TGI [1],"most common AE of ≥Grade 3 toxicity (fatigue), share of participants [2]","delay of time to peak MK-6482 exposure, median difference (Fed—Fasted) [3]","most common adverse event (headache), incidence [3]","effect of high fat, high calorie meal on extent of MK-6482 exposure ([3]; fed vs fasted)","lowering of maximum plasma MK-6482 concentration by high fat, high calorie meal ([3]; fed vs fasted)",accumulation from Day 1 to Day 15 ([4]; 120 mg QD expansion cohort (Part 1B)),"treatment-related DLTs observed (number) ([4]; 1 Grade 4 thrombocytopenia in 240 mg QD cohort, 1 Grade 3 hypoxia in 120 mg BID cohort)","most common AEs (anemia, fatigue, dyspnea, nausea, peripheral edema), share of participants [4, 5]","most common Grade 3 AEs (anemia and hypoxia), share of participants [4, 5]",MTD ([4]; dose escalation (Part 1A) 20 to 240 mg QD and 120 mg BID),"Cmax ([4]; human, in vivo, 120 mg QD expansion cohort (Part 1B), Day 15, read-out: mean steady state Cmax)","half-life ([4]; human, in vivo, 120 mg QD expansion cohort (Part 1B), Day 15, read-out: mean steady state t1/2 (converted))","best response PR, number of participants (advanced RCC)","best response PR, share of participants (advanced RCC)","best response SD, number of participants (advanced RCC)","best response SD, share of participants (advanced RCC)"
"COc1cc2nccc(Oc3ccc(NC(=O)NC4CC4)c(Cl)c3)c2cc1C(N)=O [Lenvatinib, 4-[3-chloro-4-(cyclopropylaminocarbonyl)aminophenoxy]-7-methoxy-6-quinolinecarboxamide]",significant anti-tumor activity,"0/10 PRs, 0/10 CRs","0/10 PRs, 0/10 CRs",83%,,,,,,,,,,,,,,,,
"CS(=O)(=O)c1ccc(Oc2cc(F)cc(C#N)c2)c2c1[C@H](O)[C@H](F)[C@@H]2F [MK-6482, 3-[(1S,2S,3R)-2,3-difluoro-1-hydroxy-7-methylsulfonyl-indan-4-yl]oxy-5-fluoro-benzonitrile]",significant anti-tumor activity,0/10,1/10,51%,≥ 5%,2 h,12.5%,did not affect,approximately 35%,1.5 fold,2,≥ 20%,≥ 5%,not reached,1790 ng/mL and 4.67 µM,15.4 h,11 participants,20%,32 participants,58%
